Source: EP3539562A1, “IMMUNOTHERAPEUTIC PEPTIDES” (Eberhard Karls Universität Tübingen Medizinische Fakultät, priority 2018, dated 2019)
“Also recorded” adds a separate entry of the source.

Key:
[1] = system: phospho-STAT1 (Y701); assay: Immunoblot analysis after CT-VT-RT with signalling inhibitors; format: cell-based, human; conditions: inhibitor added to CT-VT-RT (BX795 10 µM, fludarabine 100 µM)
Protocol: Cells of interest were lysed in lysis buffer containing 25 mM Tris hydrochloric acid (Tris-HCI), 120 mM sodium chloride (NaCI), 5 mM ethylenediaminetetraacetic acid (EDTA), 0.5% NP-40 and phosphatase inhibitor cocktails (Sigma Aldrich). Proteins were separated on 4-12% polyacrylamide gels (Thermo Fisher Scientific) followed by transfer to PVDF membranes (Thermo Fisher Scientific). […] Antibody against TRAIL ([…]), LC3A ([…]) and β-tubulin (9F3) were purchased from Cell Signalling (Cell Signalling, Dan-vers, USA) and used at a dilution of 1:1,000. Anti-rabbit and Anti-mouse horseradish peroxidase coupled secondary antibodies were purchased from Abcam and used at a concentration of 1:5,000. TBK1/IKKε inhibitor, BX795 was purchased from Invivogen (Invivogen, San Diego, USA) and used at a concentration of 10 μM.

[2] = system: IFN-β; assay: ELISA of supernatants of treated LNZ308 cells; format: cell-based, human; conditions: LNZ308, CT-VT-RT with or without molecular inhibitors (BX795 10 µM, fludarabine 100 µM)
Protocol: LNZ308 cells were seeded as 3×10^6 cells per dish and treated with different regimens as described above, supernatants were harvested after 96 hpt and concentrated using Amicon Ultra-15 Ultracel-3K centrifugal filters (Merck Millipore, Billerica, USA) with subsequent determination of total protein concentration using Bradford protein assay (Bio-Rad Laboratories). The respective chemokine/cytokine concentrations were determined enzymatically per microgram of total protein using the respective DuoSet ELISA kits according to manufacturer's instructions (R&D Systems, Minneapolis, USA).

[3] = system: STAT1; assay: qPCR mRNA expression in treated LNZ308 cells; format: cell-based, human; conditions: inhibitor applied after CT-VT-RT treatment
Protocol: RNA extractions were performed using the RNeasy mini kit (Qiagen) and reversely transcribed to cDNA using High-Capacity RNA-to-cDNA kit (Thermo Fisher Scientific) according to manufacturer's instructions. For each qPCR reaction, 20 ng of cDNA were amplified with custom designed primers (Supplementary Table 1) and qPCR Mastermix Plus for SYBR Green (Eurogentec, Liege, Belgium) using the 7500 Fast Real time PCR system (Thermo Fisher Scientific). Relative gene expression was determined using the ΔΔ-CT method versus the housekeeping gene ARF1.

[4] = system: LN229 cells; assay: Acute cytotoxicity assay (cell viability, Cell titer blue); format: cell-based; conditions: Homo sapiens, LN-229, DMSO control
Protocol: (§1) LN229 and LNZ308 were seeded as 5,000 cells per well in 96 well plates one day before treatment initiation. All treatments were carried out in serum-free DMEM along with their respective controls, and cell viability measured at 72 h post initial treatment (hpt) using Cell titer blue solution (Promega, Madison, USA) as per manufacturer's instructions. The measured values were converted to percentage cell viability by normalizing each treatment to its respective control within the individual regimen.
(§2) The monotherapies with γ-irradiation and MeV effected dose responses as expected (Fig. 9) and in accordance with cell viability observed previously (Fig. 4). The CT-VT-RT initiated synergistic effect was retained when substituting TMZ by lomustine/CCNU. […] The cell viability and dose dependence in the non-synergistic regimens were similar to those previously observed in triple regimens using TMZ (Fig. 5).

[5] = system: LNZ308 cells; assay: as above; format: cell-based; conditions: Homo sapiens, DMSO control
Protocol: as §1, §2

[6] = system: GS8 cells; assay: as above; format: cell-based; conditions: DMSO controls
[7] = target: T1, interferon regulatory factor 1 (IRF1) (UniProt P10914 1-325); assay: proximity ligation assay in LNZ308 cells treated with CT-VT-RT plus fludarabine
T1 sequence (looked up): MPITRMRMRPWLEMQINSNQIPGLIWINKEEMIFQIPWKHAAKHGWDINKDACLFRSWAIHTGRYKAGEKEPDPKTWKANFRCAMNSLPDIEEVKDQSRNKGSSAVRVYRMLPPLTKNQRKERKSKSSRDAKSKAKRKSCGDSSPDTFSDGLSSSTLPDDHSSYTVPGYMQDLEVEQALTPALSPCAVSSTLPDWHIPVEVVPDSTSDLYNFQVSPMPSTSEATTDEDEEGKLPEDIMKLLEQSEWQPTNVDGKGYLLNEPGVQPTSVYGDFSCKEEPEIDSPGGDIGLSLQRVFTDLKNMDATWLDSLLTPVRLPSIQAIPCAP

For `O=C(NCCCNc1nc(Nc2cccc(NC(=O)N3CCCC3)c2)ncc1I)c1cccs1` [BX795], the STAT1 protein phosphorylation [1] was “downregulated; also recorded: complete loss of phospho-STAT1 (Y701)”, the IFN-β protein [2] was “abolished; also recorded: complete loss of IFN-β production” and the STAT1 transcription [3] was “downregulated”.

Molecule `O=NN(CCCl)C(=O)NC1CCCCC1` [CCNU, lomustine] has an EC50 [4] of 16 µM and an EC50 [5] of 45 µM.

`Cn1nnc2c(C(N)=O)ncn2c1=O` [TMZ, temozolomide] was tested, and the EC50 [6] was 250 µM.

B1: basic leucine zipper transcriptional factor ATF2-like protein (BATF2) (other, UniProt Q8N1L9 1-274, looked up)
chain: MHLCGGNGLLTQTDPKEQQRQLKKQKNRAAAQRSRQKHTDKADALHQQHESLEKDNLALRKEIQSLQAELAWWSRTLHVHERLCPMDCASCSAPGLLGCWDQAEGLLGPGPQGQHGCREQLELFQTPGSCYPAQPLSPGPQPHDSPSLLQCPLPSLSLGPAVVAEPPVQLSPSPLLFASHTGSSLQGSSSKLSALQPSLTAQTAPPQPLELEHPTRGKLGSSPDNPSSALGLARLQSREHKPALSAATWQGLVVDPSPHPLLAFPLLSSAQVHF
B1: binds [7].
